Data: patent US9073975B2, “Cyclic peptides, their preparation and their use as inhibitors of the platelet adhesion” (SANOFI, priority 2010, dated 2015)
Starred links: 1 amine or outer side, 2 acyl side, 3 side chain; linkers in the order of their positions; H or OH if unused. Non-standard residues stand in square brackets, D forms with d. Residues, ends and D or L forms follow the SMILES beside them. NH(CH2)9CO = O=C(CCCCCCCCCN[*:1])[*:2]; Dap = NC[C@H](N)C(=O)O; Ac3c = NC1(C(=O)O)CC1; Aib = CC(C)(N)C(=O)O; Ahp = NCCCCCCC(=O)O; Ava = NCCCCC(=O)O; GABA = NCCCC(=O)O

Each compound was assayed against T1, recombinant human vWF-A1 domain (Homo sapiens, UniProt P07359) (assay: Static human platelet adhesion to recombinant human vWF-A1 domain). Details: washed calcein AM labeled human platelets, static conditions, 1.5 h adhesion; read-out: Activity (IC50 for inhibition of the binding of platelets to vWF A1 domain).
T1 construct: whole blood drawn from voluntary donors; made in house; host or cells: E. coli (vWF-A1); washed platelets from human donor blood (GPIb, endogenous)
T1 sequence (P07359 17-652): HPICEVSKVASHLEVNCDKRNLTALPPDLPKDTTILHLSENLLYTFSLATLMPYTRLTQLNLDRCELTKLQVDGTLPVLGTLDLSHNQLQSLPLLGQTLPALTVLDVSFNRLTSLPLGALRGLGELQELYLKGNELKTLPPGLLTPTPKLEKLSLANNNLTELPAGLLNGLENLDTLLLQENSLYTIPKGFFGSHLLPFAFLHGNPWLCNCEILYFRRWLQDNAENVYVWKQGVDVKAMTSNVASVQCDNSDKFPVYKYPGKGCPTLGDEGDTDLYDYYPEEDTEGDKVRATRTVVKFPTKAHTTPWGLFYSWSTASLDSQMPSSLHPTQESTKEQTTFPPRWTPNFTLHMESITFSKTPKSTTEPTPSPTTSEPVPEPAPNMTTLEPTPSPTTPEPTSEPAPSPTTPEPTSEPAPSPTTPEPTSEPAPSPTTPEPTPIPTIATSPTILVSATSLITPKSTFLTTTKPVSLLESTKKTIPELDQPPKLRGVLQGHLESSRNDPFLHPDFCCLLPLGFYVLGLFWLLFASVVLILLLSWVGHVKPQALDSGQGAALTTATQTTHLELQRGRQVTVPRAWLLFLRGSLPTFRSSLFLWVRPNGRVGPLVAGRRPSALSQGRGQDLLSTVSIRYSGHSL
T1 sequence (P13224 26-206 partner): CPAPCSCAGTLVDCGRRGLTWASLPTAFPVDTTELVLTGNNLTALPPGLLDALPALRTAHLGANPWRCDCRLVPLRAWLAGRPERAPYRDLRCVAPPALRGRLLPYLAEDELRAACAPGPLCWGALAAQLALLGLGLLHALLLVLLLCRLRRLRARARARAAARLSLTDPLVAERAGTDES
T1 sequence (P14770 17-177 partner): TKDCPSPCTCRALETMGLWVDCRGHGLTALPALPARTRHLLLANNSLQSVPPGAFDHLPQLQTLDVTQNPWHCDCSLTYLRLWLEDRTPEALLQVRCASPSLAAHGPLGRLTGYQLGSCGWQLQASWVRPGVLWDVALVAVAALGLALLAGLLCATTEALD
Assay type: cell-based
Method: The activity of compounds of the formula I can be shown by procedures known in the art, for example by determining their inhibition of the binding of platelets to vWF A1 domain in an appropriate assay. To this end, assay plates can be coated with vWF-A1 domain. […] Then fluorescence-labeled thrombocytes are added and incubated for 90 minutes. In a complex washing procedure all non-bound thrombocytes are removed and the plates are measured, for example in a laser-based reader Acumen Explorer or a bulk reader like Spectramax. […] To assess the effect of compounds on the interaction of the GPIb complex on platelets with vWF, an assay system was used measuring binding of human platelets to recombinant human vWF-A1 domain under static conditions in the presence and absence of the compounds. […] Platelet rich plasma was carefully removed, transferred to a fresh container and spun down for 15 min at 120 g. Platelet rich plasma was carefully transferred again to fresh containers, PGE1 (0.5 μg/ml, Sigma) was added and the suspension was allowed to rest for 5 min. This was followed by another centrifugation step for 15 min at 360 g. The supernatant was discarded and the cell pellets were carefully resuspended in tyrode buffer (NaCl, 137 mM (Sigma S-3014); KCl, 2.7 mM (Sigma P-9541); NaHCO3,12 mM ([…] 31437); NaH2PO4×2H2O, 0.36 mM (Merck 6345); […] After 5 min of resting the suspension was spun down for 15 min at 300 g. The supernatant was discarded and the pellets were carefully resuspended in TBS buffer (Tris-HCl, 50 mM (Fluka 93371); NaCl, 120 mM (Sigma S-3014); KCl, 2.7 mM (Sigma P-9541); CaCl2, 0.05 mM (Sigma C-3306); MgCl2×6 H2O, 2 mM (Sigma M-2670); […] The platelet count was adjusted to 2×10^5 cells/μl, and the suspensions from individual donors were pooled at this stage. The platelets were allowed to rest for 30 min at room temperature before calcein AM (2.5 μM per 2×10^5 cells/μl (Molecular Probes C-3099)) was added. This was followed by 15 min incubation in the dark. Cells were diluted to 5×10^4 cells/μl and ReoPro (3 μg/ml (Centocor B. V., Leiden, N L)) was added, followed by a 10 min incubation period in the dark before adding the platelets to the assay plates. 96 well plates (Greiner hb, black, clear bottom, F, 655097) were coated with human recombinant vWF-A1 domain (1.5 μg/well, AA 475-706, expressed in E. coli) in Tris buffer (pH 7.4; Tris-HCl, 25 mM; NaCl, 150 mM) and incubated for 1 h at room temperature. After washing the wells 3× with TBS, blocking buffer (TBS with 5% BSA) was added followed by an incubation for 1 h. The wells were washed again 3× with TBS before 200 μl TBS were added to each well, preventing them from drying out. TBS was flicked out and serial dilutions of the test compound were added. The washed and calcein AM labeled thrombocytes were added to the wells (2.5×10^6 cells/well). Following an adhesion period of 1.5 h in the dark the wells were washed 3× with TBS. Measurement of fluorescence per well was performed in a SpectraMax M5 reader (Molecular Devices). From the raw data % inhibition and IC50 values were calculated.

| SMILES | IC50 [nM] |
| --- | --- |
| COC[C@@H]1NC(=O)[C@H](CCCNC(=N)N)NC(=O)[C@H](CCC(=O)O)NC(=O)[C@H]([C@@H](C)O)NC(=O)CCCCCCNC(=O)[C@H](CC(C)C)NC(=O)[C@H](CC(N)=O)NC(=O)[C@H](Cc2c[nH]cn2)NC(=O)[C@H](CC(C)C)NC(=O)[C@H](C)NC1=O [Example 45, Cyclo[Leu-His-Asn-Leu-NH—(CH2)6—CO-Thr-Glu-Arg-Amp-Ala]] (cyclo(ALHNL[Ahp]TERS(Me))) | < 1000 |
| CSCC[C@@H]1NC(=O)[C@H](CCCNC(=N)N)NC(=O)[C@H](CCC(=O)O)NC(=O)[C@H]([C@@H](C)O)NC(=O)CCCCNC(=O)CNC(=O)[C@H](CC(C)C)NC(=O)[C@H](CC(N)=O)NC(=O)[C@H](Cc2c[nH]cn2)NC(=O)[C@H](CC(C)C)NC(=O)[C@H](C)NC1=O [Example 46, Cyclo[Leu-His-Asn-Leu-Gly-NH—(CH2)4—CO-Thr-Glu-Arg-Met-Ala]] (cyclo(ALHNLG[Ava]TERM)) | 1000 to 10000 |
| CSCC[C@@H]1NC(=O)[C@H](CCCNC(=N)N)NC(=O)[C@H](CCC(=O)O)NC(=O)[C@H]([C@@H](C)O)NC(=O)CCCCCCCCCNC(=O)[C@H](CC(C)C)NC(=O)[C@H](CC(N)=O)NC(=O)[C@H](Cc2c[nH]cn2)NC(=O)[C@H](CC(C)C)NC(=O)[C@H](C)NC1=O [Example 47, Cyclo[Leu-His-Asn-Leu-NH—(CH2)9—CO-Thr-Glu-Arg-Met-Ala]] (cyclo(ALHNL[NH(CH2)9CO]TERM)) | 1000 to 10000 |
| CSCC[C@@H]1NC(=O)[C@H](CCCNC(=N)N)NC(=O)[C@H](CCC(=O)O)NC(=O)[C@H]([C@@H](C)O)NC(=O)CCCNC(=O)[C@H](CN)NC(=O)[C@H](CC(C)C)NC(=O)[C@H](CC(N)=O)NC(=O)[C@H](Cc2c[nH]cn2)NC(=O)[C@H](CC(C)C)NC(=O)[C@H](C)NC1=O [Example 49, Cyclo[Leu-His-Asn-Leu-Dpr-NH—(CH2)3—CO-Thr-Glu-Arg-Met-Ala]] (cyclo(ALHNL[Dap][GABA]TERM)) | 1000 to 10000 |
| CSCC[C@@H]1NC(=O)[C@H](CCCNC(=N)N)NC(=O)[C@H](CCC(=O)O)NC(=O)[C@H]([C@@H](C)O)NC(=O)[C@H](CC(N)=O)NC(=O)CCCNC(=O)[C@H](CC(C)C)NC(=O)[C@H](CC(N)=O)NC(=O)[C@H](Cc2c[nH]cn2)NC(=O)[C@H](CC(C)C)NC(=O)[C@H](C)NC1=O [Example 50, Cyclo[Leu-His-Asn-Leu-NH—(CH2)3—CO-Asn-Thr-Glu-Arg-Met-Ala]] (cyclo(ALHNL[GABA]NTERM)) | 1000 to 10000 |
| CSCC[C@@H]1NC(=O)[C@H](CCCNC(=N)N)NC(=O)[C@H](CCC(=O)O)NC(=O)[C@H]([C@@H](C)O)NC(=O)C(C)(C)NC(=O)CCCNC(=O)[C@H](CC(C)C)NC(=O)[C@H](CC(N)=O)NC(=O)[C@H](Cc2c[nH]cn2)NC(=O)[C@H](CC(C)C)NC(=O)[C@H](C)NC1=O [Example 53, Cyclo[Leu-His-Asn-Leu-NH—(CH2)3—CO-Aib-Thr-Glu-Arg-Met-Ala]] (cyclo(ALHNL[GABA][Aib]TERM)) | 1000 to 10000 |
| CSCC[C@@H]1NC(=O)[C@H](CCCNC(=N)N)NC(=O)[C@H](CCC(=O)O)NC(=O)[C@H]([C@@H](C)O)NC(=O)C2(CC2)NC(=O)CCCNC(=O)[C@H](CC(C)C)NC(=O)[C@H](CC(N)=O)NC(=O)[C@H](Cc2c[nH]cn2)NC(=O)[C@H](CC(C)C)NC(=O)[C@H](C)NC1=O [Example 54, Cyclo[Leu-His-Asn-Leu-NH—(CH2)3—CO-Ac3-Thr-Glu-Arg-Met-Ala]] (cyclo(ALHNL[GABA][Ac3c]TERM)) | 1000 to 10000 |
| CSCC[C@@H]1NC(=O)[C@H](CCCNC(=N)N)NC(=O)[C@H](CCC(=O)O)NC(=O)[C@H]([C@@H](C)O)NC(=O)CCCCCCNC(=O)[C@H](CC(C)C)NC(=O)[C@H](CC(N)=O)NC(=O)[C@H](Cc2c[nH]cn2)NC(=O)[C@H](CC(C)C)NC(=O)[C@H](CCC(N)=O)NC1=O [Example 55, Cyclo[Leu-His-Asn-Leu-NH—(CH2)6—CO-Thr-Glu-Arg-Met-Gln]] (cyclo([Ahp]TERMQLHNL)) | 1000 to 10000 |
